Results reported in patent US20230089867A1, “CYCLIC PENTAMER COMPOUNDS AS PROPROTEIN CONVERTASE SUBTILISIN/KEXIN TYPE 9 (PCSK9) INHIBITORS FOR THE TREATMENT OF METABOLIC DISORDER” (Novartis AG, priority 2018, published 2023).

Molecular target: human PCSK9 (Homo sapiens, UniProt Q8NBP7)
Assay: PCSK9 ligand binding TR-FRET assay (interference with binding of human PCSK9 to human LDLR)
Details: for Max % inhibition: PCSK9 FRET assay, efficacy (Amax), 100% = 1 uM unlabeled human PCSK9, 0% = DMSO; for IC50: TR-FRET, human PCSK9 Alexa Fluor 647 / human LDLR extracellular domain-Europium Kryptate, read-out: PCSK9 FRET Assay IC50
In short: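 Threefold compound dilutions were pre-incubated 30 min with PCSK9, after which 4 nM Europium Kryptate-tagged human LDLR ectodomain was added for a further 2 h.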

Chain of human PCSK9 (Q8NBP7 153-692): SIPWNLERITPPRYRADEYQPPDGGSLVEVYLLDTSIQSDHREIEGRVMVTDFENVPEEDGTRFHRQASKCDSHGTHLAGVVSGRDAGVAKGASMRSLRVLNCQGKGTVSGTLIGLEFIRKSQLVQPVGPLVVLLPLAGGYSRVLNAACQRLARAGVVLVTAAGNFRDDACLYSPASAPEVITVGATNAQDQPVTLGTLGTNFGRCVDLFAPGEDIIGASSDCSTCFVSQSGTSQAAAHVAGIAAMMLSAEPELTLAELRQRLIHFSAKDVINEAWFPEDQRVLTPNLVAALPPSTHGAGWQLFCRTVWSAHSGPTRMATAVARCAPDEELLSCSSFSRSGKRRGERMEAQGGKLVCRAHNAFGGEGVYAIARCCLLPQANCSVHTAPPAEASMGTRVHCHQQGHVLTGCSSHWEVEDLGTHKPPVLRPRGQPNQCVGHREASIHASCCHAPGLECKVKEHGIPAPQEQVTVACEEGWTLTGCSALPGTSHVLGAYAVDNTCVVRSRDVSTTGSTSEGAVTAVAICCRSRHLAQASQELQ
Chain of human PCSK9 (Q8NBP7 31-152 partner limits assumed): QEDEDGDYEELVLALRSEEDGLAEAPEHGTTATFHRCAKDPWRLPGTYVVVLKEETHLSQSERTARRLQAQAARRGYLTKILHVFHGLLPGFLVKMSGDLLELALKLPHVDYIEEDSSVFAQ

Row | Max % inhibition | IC50 | Structure (SMILES)
1 | 102.49% | 1.3 nM | C[C@H]1CNC(=O)C[C@H](Cc2ccc(Cl)cc2)N(C)C(=O)[C@H](COC(F)F)NC(=O)[C@H](C)N(Cc2ccc(Cl)cc2Oc2ccc(-c3cnc(CN(C)C)n3C)cc2)C(=O)C[C@@H](Cc2ccccc2)C(=O)N1C [Compound 170, (2S,5S,8S,13S,16R)-16-benzyl-1-(4-chloro-2-(4-(2-((dimethylamino)methyl)-1-methyl-1H-imidazol-5-yl)phenoxy)benzyl)-8-(4-chlorobenzyl)-5-((difluoromethoxy)methyl)-2,7,13,14-tetramethyl-1,4,7,11,14-pentaazacyclooctadecane-3,6,10,15,18-pentaone]
2 | 91.76% | 3.1 nM | COC[C@@H]1NC(=O)[C@H](C)N(Cc2ccc(Cl)cc2Oc2ccc(-c3cnc4n3CCN(C(=O)[C@@H]3CCOC3)C4)cc2)C(=O)C[C@@H](Cc2ccccc2)C(=O)N(C)[C@@H](C)CNC(=O)C[C@H](Cc2ccc(Cl)cc2)N(C)C1=O [Compound 171, (2S,5S,8S,13S,16R)-16-benzyl-1-(4-chloro-2-(4-(7-((R)-tetrahydrofuran-3-carbonyl)-5,6,7,8-tetrahydroimidazo[1,2-a]pyrazin-3-yl)phenoxy)benzyl)-8-(4-chlorobenzyl)-5-(methoxymethyl)-2,7,13,14-tetramethyl-1,4,7,11,14-pentaazacyclooctadecane-3,6,10,15,18-pentaone]
3 | 102.44% | 1.4 nM | COC[C@@H]1NC(=O)[C@H](C)N(Cc2ccc(Cl)cc2Oc2ccc(-c3cnc(CN(C)C)n3C)cc2)C(=O)C[C@@H](Cc2cccc[n+]2[O-])C(=O)N(C)[C@H]2CCCC[C@@H]2NC(=O)C[C@H](Cc2ccc(Cl)cc2)N(C)C1=O [Compound 172, 2-(((4S,7S,10S,14R,16aS,20aS)-11-(4-chloro-2-(4-(2-((dimethylamino)methyl)-1-methyl-1H-imidazol-5-yl)phenoxy)benzyl)-4-(4-chlorobenzyl)-7-(methoxymethyl)-5,10,16-trimethyl-2,6,9,12,15-pentaoxodocosahydrobenzo[l][1,4,7,11,14]pentaazacyclooctadecin-14-yl)methyl)pyridine 1-oxide]
4 | 84.80% | 73.3 nM | CC[C@H]1C(=O)N[C@@H](COC)C(=O)N(C)[C@@H](Cc2ccc(Cl)cc2)CC(=O)NC[C@H](C)N(C)C(=O)[C@H](C)CC(=O)N1Cc1ccc(Cl)cc1Oc1ccc(-c2cnc(CN(C)C)n2C)cc1 [Compound 173, (2S,5S,8S,13S,16R)-1-(4-chloro-2-(4-(2-((dimethylamino)methyl)-1-methyl-1H-imidazol-5-yl)phenoxy)benzyl)-8-(4-chlorobenzyl)-2-ethyl-5-(methoxymethyl)-7,13,14,16-tetramethyl-1,4,7,11,14-pentaazacyclooctadecane-3,6,10,15,18-pentaone]
5 | 102.02% | 11.4 nM | COC[C@@H]1NC(=O)[C@H](CC(=O)OC(C)(C)C)N(Cc2ccc(Cl)cc2Oc2ccc(-c3cnc(CN(C)C)n3C)cc2)C(=O)C[C@@H](Cc2ccccc2)C(=O)N(C)[C@@H](C)CNC(=O)C[C@H](Cc2ccc(Cl)cc2)N(C)C1=O [Compound 174, tert-butyl 2-((2S,5S,8S,13S,16R)-16-benzyl-1-(4-chloro-2-(4-(2-((dimethylamino)methyl)-1-methyl-1H-imidazol-5-yl)phenoxy)benzyl)-8-(4-chlorobenzyl)-5-(methoxymethyl)-7,13,14-trimethyl-3,6,10,15,18-pentaoxo-1,4,7,11,14-pentaazacyclooctadecan-2-yl)acetate]
6 | 102.55% | 5.8 nM | COC[C@@H]1NC(=O)[C@H](CCC(=O)N2CCOCC2)N(Cc2ccc(Cl)cc2Oc2ccc(-c3cnc(CN(C)C)n3C)cc2)C(=O)C[C@@H](Cc2ccccc2)C(=O)N(C)[C@@H](C)CNC(=O)C[C@H](Cc2ccc(Cl)cc2)N(C)C1=O [Compound 175, (2S,5S,8S,13S,16R)-16-benzyl-1-(4-chloro-2-(4-(2-((dimethylamino)methyl)-1-methyl-1H-imidazol-5-yl)phenoxy)benzyl)-8-(4-chlorobenzyl)-5-(methoxymethyl)-7,13,14-trimethyl-2-(3-morpholino-3-oxopropyl)-1,4,7,11,14-pentaazacyclooctadecane-3,6,10,15,18-pentaone]
7 | 70.99% | 4.3 nM | COC[C@@H]1NC(=O)[C@H](C)N(Cc2ccc(Cl)cc2Oc2ccc(-c3cnc4c(c3)CN(C(=O)[C@H]3CCNC3)CC4)cc2)C(=O)C[C@@H](Cc2ccccc2)C(=O)N(C)[C@@H](C)CNC(=O)C[C@H](Cc2ccc(Cl)cc2)N(C)C1=O [Compound 176, (2S,5S,8S,13S,16R)-16-benzyl-1-(4-chloro-2-(4-(6-((S)-pyrrolidine-3-carbonyl)-5,6,7,8-tetrahydro-1,6-naphthyridin-3-yl)phenoxy)benzyl)-8-(4-chlorobenzyl)-5-(methoxymethyl)-2,7,13,14-tetramethyl-1,4,7,11,14-pentaazacyclooctadecane-3,6,10,15,18-pentaone]
8 | 107.53% | 9.8 nM | COC[C@@H]1NC(=O)[C@H](C)N(Cc2ccc(Cl)cc2Oc2ccc(-c3cnc(CN(C)C)n3C)cc2)C(=O)C[C@@H](Cc2ccccc2)C(=O)N(C)[C@@H](C(=O)O)CNC(=O)C[C@H](Cc2ccc(Cl)cc2)N(C)C1=O [Compound 177, (2S,5S,8S,13R,16R)-16-benzyl-1-(4-chloro-2-(4-(2-((dimethylamino)methyl)-1-methyl-1H-imidazol-5-yl)phenoxy)benzyl)-8-(4-chlorobenzyl)-5-(methoxymethyl)-2,7,14-trimethyl-3,6,10,15,18-pentaoxo-1,4,7,11,14-pentaazacyclooctadecane-13-carboxylic acid]
9 | 103.76% | 0.6 nM | COC[C@@H]1NC(=O)[C@H](C)N(Cc2ccc(OC(F)F)cc2Oc2ccc(-c3cnc(CN(C)C)n3C)cc2)C(=O)C[C@@H](Cc2ccccc2)C(=O)N(C)[C@@H](C)CNC(=O)C[C@H](Cc2ccc(Cl)cc2)N(C)C1=O [Compound 179, (2S,5S,8S,13S,16R)-16-benzyl-8-(4-chlorobenzyl)-1-(4-(difluoromethoxy)-2-(4-(2-((dimethylamino)methyl)-1-methyl-1H-imidazol-5-yl)phenoxy)benzyl)-5-(methoxymethyl)-2,7,13,14-tetramethyl-1,4,7,11,14-pentaazacyclooctadecane-3,6,10,15,18-pentaone]
10 | 102.27% | 3.1 nM | COC[C@@H]1NC(=O)[C@H](C)N(Cc2ccc(Cl)cc2Oc2ccc(-c3cnc(CN(C)C)n3C)cc2)C(=O)C[C@@H](Cc2ccc(F)c[n+]2[O-])C(=O)N(C)[C@@H](C)CNC(=O)C[C@H](Cc2ccc(Cl)cc2)N(C)C1=O [Compound 180, 2-(((2S,5S,8S,13S,16R)-1-(4-chloro-2-(4-(2-((dimethylamino)methyl)-1-methyl-1H-imidazol-5-yl)phenoxy)benzyl)-8-(4-chlorobenzyl)-5-(methoxymethyl)-2,7,13,14-tetramethyl-3,6,10,15,18-pentaoxo-1,4,7,11,14-pentaazacyclooctadecan-16-yl)methyl)-5-fluoropyridine 1-oxide]
11 | 54.93% | 10.3 nM | CCc1ncc(-c2ccc(Oc3cc(Cl)ccc3CN3C(=O)C[C@@H](Cc4ccccc4)C(=O)N(C)[C@@H](C)CNC(=O)C[C@H](Cc4ccc(Cl)cc4)N(C)C(=O)[C@H](COC)NC(=O)[C@@H]3C)cc2)n1C [Compound 181, (2S,5S,8S,13S,16R)-16-benzyl-1-(4-chloro-2-(4-(2-ethyl-1-methyl-1H-imidazol-5-yl)phenoxy)benzyl)-8-(4-chlorobenzyl)-5-(methoxymethyl)-2,7,13,14-tetramethyl-1,4,7,11,14-pentaazacyclooctadecane-3,6,10,15,18-pentaone]
12 | 99.86% | 1.2 nM | COC[C@@H]1NC(=O)[C@H](CCCNC(=O)OC(C)(C)C)N(Cc2ccc(Cl)cc2Oc2ccc(-c3cnc(CN(C)C)n3C)cc2)C(=O)C[C@@H](Cc2ccccc2)C(=O)N(C)[C@H]2CCCC[C@@H]2NC(=O)C[C@H](Cc2ccc(Cl)cc2)N(C)C1=O [Compound 182, tert-butyl (3-((4S,7S,10S,14R,16aS,20aS)-14-benzyl-11-(4-chloro-2-(4-(2-((dimethylamino)methyl)-1-methyl-1H-imidazol-5-yl)phenoxy)benzyl)-4-(4-chlorobenzyl)-7-(methoxymethyl)-5,16-dimethyl-2,6,9,12,15-pentaoxodocosahydrobenzo[l][1,4,7,11,14]pentaazacyclooctadecin-10-yl)propyl)carbamate]
13 | 81.31% | 11.2 nM | COC[C@@H]1NC(=O)[C@H](C)N(Cc2ccc(Cl)cc2Oc2ccc(-c3cnc(CN(C)C)n3C)cc2)C(=O)C[C@@H](CC2CCCCC2)C(=O)N(C)[C@@H](C)CNC(=O)C[C@H](Cc2ccc(Cl)cc2)N(C)C1=O [Compound 183, (2S,5S,8S,13S,16R)-1-(4-chloro-2-(4-(2-((dimethylamino)methyl)-1-methyl-1H-imidazol-5-yl)phenoxy)benzyl)-8-(4-chlorobenzyl)-16-(cyclohexylmethyl)-5-(methoxymethyl)-2,7,13,14-tetramethyl-1,4,7,11,14-pentaazacyclooctadecane-3,6,10,15,18-pentaone]
14 | 54.06% | 9.4 nM | COC[C@@H]1NC(=O)C(C)N(Cc2ccc(Cl)cc2Oc2ccc(-c3cnc(CN(C)C)n3C)cc2)C(=O)C[C@@H](C)C(=O)N(C)[C@@H](CC(C)C)CNC(=O)C[C@H](Cc2ccc(Cl)cc2)N(C)C1=O (stereo partly drawn) [Compound 184, (5S,8S,13S,16R)-1-(4-chloro-2-(4-(2-((dimethylamino)methyl)-1-methyl-1H-imidazol-5-yl)phenoxy)benzyl)-8-(4-chlorobenzyl)-13-isobutyl-5-(methoxymethyl)-2,7,14,16-tetramethyl-1,4,7,11,14-pentaazacyclooctadecane-3,6,10,15,18-pentaone]
